Where “and” joins values, the source holds several entries; their conditions need not be identical. Identical values can stand only once.

The nature of data set [1]: Oral bioavailability in rat. As to conditions: in vivo. Format: ADME, organism-based.
Data set [2] in a line: Maximum plasma concentration determined in rat. In kind it is ADME, organism-based.
Data set [3] in a line: Time for maximum plasma concentration determined in rat. Format: ADME, organism-based.
Data set [4] can be described thus: Steady state volume of distribution determined in rat. Format: ADME, organism-based. To be noted: in vivo, read-out: Vss.
Data set [5] has as its system Gerbillinae. Briefly: In vivo percent inhibition of gerbil foot tapping 0 hours after iv administration at 3 mg/kg. In kind it is functional.
The nature of data set [6]: Plasma clearance rate determined in rat. In kind it is ADME, organism-based.
Data set [7] can be described thus: Mean residence time determined in rat. As to conditions: in vivo, read-out: Time. Format: ADME, organism-based.
Data set [8] in a line: Plasma half life determined in rat. To be noted: read-out: Time (converted). In kind it is ADME, organism-based.
A further data set addresses Substance-P receptor (Homo sapiens, UniProt P25103). Briefly: Ability to displace [125I]-labeled substance P from human cloned Tachykinin receptor 1 in CHO cells. Format: cell-based.
For data set [9], the system named is Gerbillinae. The data set can be described thus: In vivo percent inhibition of gerbil foot tapping 0 hours after iv administration of 3 mg/kg. In kind it is functional.
Data set [10] has as its system Gerbillinae. Briefly: In vivo percent inhibition of gerbil foot tapping 2 hours after iv administration of 3 mg/kg. In kind it is functional.
Data set [11] relates to Gerbillinae. Briefly: In vivo percent inhibition of gerbil foot tapping 0 hours after iv administration of 1 mg/kg. Format: functional.
Data set [12] concerns Gerbillinae. Briefly: In vivo percent inhibition of gerbil foot tapping 2 hours after iv administration of 1 mg/kg. Format: functional.
Data set [13] deals with Gerbillinae. The data set can be described thus: Inhibitory dose against gerbil foot tapping 2 hours after iv administration. Format: functional.
Data set [14] can be described thus: Half life of compound determined in rat. To be noted: in vivo, read-out: Time (converted). In kind it is ADME, organism-based.

Substance-P receptor, sequence (P25103 whole entry): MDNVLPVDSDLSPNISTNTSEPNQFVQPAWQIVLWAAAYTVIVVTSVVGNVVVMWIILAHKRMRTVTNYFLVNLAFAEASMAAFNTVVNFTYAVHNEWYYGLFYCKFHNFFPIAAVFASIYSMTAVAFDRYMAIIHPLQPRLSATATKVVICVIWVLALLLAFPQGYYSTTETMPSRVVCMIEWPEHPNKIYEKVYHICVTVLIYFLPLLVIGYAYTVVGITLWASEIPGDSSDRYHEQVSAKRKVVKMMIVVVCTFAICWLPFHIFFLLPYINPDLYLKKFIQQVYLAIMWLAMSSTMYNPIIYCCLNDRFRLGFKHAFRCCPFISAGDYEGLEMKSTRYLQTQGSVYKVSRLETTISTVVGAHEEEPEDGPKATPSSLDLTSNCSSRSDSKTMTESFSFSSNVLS

`COc1ccccc1N1CCN(C(=O)CCc2c(-c3ccc(Br)cc3)[nH]c3ccc(C)cc23)CC1`: the bioavailability (usually dose-corrected exposure relative to a reference, in per cent) in [1] was 3%. Further, the peak level in data set [2] (Cmax) was 2 ng/mL. Further, in data set [3], the Tmax (in general, the time at which the peak concentration occurs) stood at 1.1 h. Besides, in [4], the Vd was 9.5 L/kg. In the data set with Gerbillinae [5], 3 mg/kg produced 46% inhibition in vivo. Further, the clearance (as a rule, the volume of plasma or blood freed of the substance per unit of time) in [6] worked out at 179 mL/min/kg. For the same compound, the MRT in [7] turned out to be 0.9 h. The half-life in data set [8] is 1.4 h.

With `Cn1c(-c2ccc(Cl)cc2)c(CCC(=O)N2CCC(Nc3ccccc3)CC2)c2cc(Cl)ccc21`, the IC50 (in general, the concentration at which inhibition is half-maximal) on Substance-P receptor stood at 1.3 nM.

In turn, `Cn1c(-c2ccc(Cl)cc2)c(CCC(=O)N2CCN(CC3CCCCC3)CC2)c2cc(Cl)ccc21` had an IC50 at Substance-P receptor of 2.9 nM. Compared with the last compound, the IC50 is about 2.2-fold higher.

Compound `CC(C)N1CCN(C(=O)CCc2c(-c3ccc(Cl)cc3)n(C)c3ccc(Cl)cc23)CC1` registered an IC50 at Substance-P receptor of 13 nM.

On to `Cn1c(-c2ccc(Cl)cc2)c(CCC(=O)N2CCN(C3CCCCC3)CC2)c2cc(Cl)ccc21`, for which the values for the inhibition in vivo at 3 mg/kg in the data set with Gerbillinae [9] and with Gerbillinae [10] were 100% and 7%, respectively. At Substance-P receptor, the half-maximal inhibitory concentration (IC50) amounted to 0.35 nM.

`Cn1c(-c2ccc(Cl)cc2)c(CCC(=O)N2CCN(Cc3ccccc3)C(=O)C2)c2cc(Cl)ccc21`: the IC50 on Substance-P receptor came to 0.39 nM.

Turning to `Cn1c(-c2ccc(Cl)cc2)c(CCC(=O)N2CCN(Cc3ccccc3)CC2)c2cc(Cl)ccc21`, the inhibition in vivo (as a rule, the percentage by which the read-out fell short of the control) at 3 mg/kg was 100% in the data set on Gerbillinae [9] and 17% in the data set with Gerbillinae [10]. Also, on Substance-P receptor, the half-inhibitory concentration (IC50) came to 0.3 nM.

`CC(C)CCN1CCN(C(=O)CCc2c(-c3ccc(Cl)cc3)n(C)c3ccc(Cl)cc23)CC1` returned an IC50 at Substance-P receptor of 0.34 nM.

For `CCC(=O)N(c1ccccc1)C1CCN(C(=O)CCc2c(-c3ccc(Cl)cc3)n(C)c3ccc(Cl)cc23)CC1`, the values for the Inhibition in the data set on Gerbillinae [9] and with Gerbillinae [10] were 100% and 50%, respectively. This compound also came in with an IC50 on Substance-P receptor of 0.16 nM.

`CC(=O)C1(c2ccccc2)CCN(C(=O)CCc2c(-c3ccc(Cl)cc3)n(C)c3ccc(Cl)cc23)CC1`: the concentration for half-maximal inhibition (IC50) at Substance-P receptor was 0.53 nM.

In the case of `CN(C(=O)CN1CCN(C(=O)CCc2c(-c3ccc(Cl)cc3)n(C)c3ccc(Cl)cc23)CC1)c1ccccc1`, the inhibition in vivo at 1 mg/kg in the data set with Gerbillinae [11] turned out to be 87%; in the data set with Gerbillinae [12], 6%. In addition, the IC50 at Substance-P receptor was found to be 0.13 nM.

`Cn1c(-c2ccc(Cl)cc2)c(CCC(=O)N2CCN(CC(=O)Nc3ccccc3)CC2)c2cc(Cl)ccc21` came in with a half-maximal inhibitory concentration (IC50) on Substance-P receptor of 30 nM. This counts as double-digit nanomolar.

Compound `Cn1c(-c2ccc(Cl)cc2)c(CCC(=O)N2CCC(Cc3ccccc3)CC2)c2cc(Cl)ccc21` yielded a 50% inhibitory concentration (IC50) on Substance-P receptor of 2.2 nM.

As for `Cn1c(-c2ccc(Cl)cc2)c(CCC(=O)N2CCC(O)(Cc3ccccc3)CC2)c2cc(Cl)ccc21`, in the data set with Gerbillinae [13], the ID50 is 0.3 mg/kg and 0.9 mg/kg. The same compound showed a bioavailability in [1] of 3%. In [2], the peak level (Cmax) was 4 ng/mL. Moreover, the half-life in [14] is 3.1 h. The same compound came in with a 50% inhibitory concentration (IC50) on Substance-P receptor of 0.21 nM. The time to peak (Tmax) in [3] came out at 1.2 h. Further, in data set [4], the Vd amounted to 3.5 L/kg. Further, the MRT in [7] was 1.8 h.

Consider `Cn1c(-c2ccc(Cl)cc2)c(CCC(=O)N2CCC(CO)(c3ccccc3)CC2)c2cc(Cl)ccc21`, for which the half-inhibitory concentration (IC50) at Substance-P receptor stood at 55 nM.

In the case of `Cn1c(-c2ccc(Cl)cc2)c(CCC(=O)N2CCN(CC(C)(C)C)CC2)c2cc(Cl)ccc21`, the concentration for half-maximal inhibition (IC50) at Substance-P receptor was found to be 2 nM. This IC50 lies about 28-fold lower than the previous one.

In turn, `Cn1c(-c2ccc(Cl)cc2)c(CCC(=O)N2CCN(CC3CC3)CC2)c2cc(Cl)ccc21` came in with an IC50 at Substance-P receptor of 0.78 nM.

Turning to `Cn1c(-c2ccc(Cl)cc2)c(CCC(=O)N2CCC(F)(Cc3ccccc3)CC2)c2cc(Cl)ccc21`, at Substance-P receptor, the IC50 worked out at 0.55 nM.

The values are drawn from ChEMBL document CHEMBL1133856, “2-Aryl indole NK(1) antagonists: optimisation of the amide substituent” (Bioorg Med Chem Lett, 2001).
